Assay results: patent US20250179439A1, “PRODUCTION METHOD FOR ORGANOID” (KEIO UNIVERSITY, priority 2022, published 2025)
Residues, ends and D or L forms follow the SMILES beside them. *: point of attachment. Cbz = O=C(OCc1ccccc1)*

System: CRC organoids
Experiment: Drug screening assay (HTS) of GFP-labelled organoids in suspension culture, 384-well
Type: cell-based, human
Source text: In the present study, a total of 23 organoid lineages were subjected to screening. Prior to screening, the organoids were labeled with a green fluorescent protein (GFP) using PB-CMV-MCS-EF1α-GFP-Puro PiggyBac (PB513B-1, available from System Biosciences, LLC.) and Super PiggyBac transposase (PB210-20, available from System Biosciences, LLC.) vectors.
The organoids were dissociated with TrypLE Express (available from Thermo Fisher Scientific, Inc.) and filtered using a cell strainer (pore size: 20 μm, available from Sysmex Corporation). Using a cell sorter (SH800, available from Sony Corporation), 800 to 1,500 cells were sorted into each well of a 384-well plate.
The organoids were treated with a test compound 24 hours or 96 hours after seeding. The organoids were grown for 6 to 8 days, and the colony area was measured based on the fluorescence of GFP using an IN Cell Analyzer 6000 confocal imaging system (available from GE Healthcare Life Sciences). In addition, bright field imaging and luminescence-based ATP measurement were carried out using Cell3iMager duos (available from SCREEN Holdings Co., Ltd.) and CellTiter-Glo cell viability assay (available from Promega Corporation).
The bright field image was analyzed using software integrated into the Cell3iMager. […]

Compound	cell death (maximum concentration of 1 μM, all screening plates (normal colon and CRC organoids), used to estimate the background signal)	growth of organoids, CRC versus normal colon organoids (MANOVA of HTS drug responses) (CRC organoids compared with normal colon organoids)
CC(C)C[C@@H](C=O)NC(=O)[C@H](CC(C)C)NC(=O)[C@H](CC(C)C)NC(=O)OCc1ccccc1 [MG-132] (Cbz-Leu-Leu-Leu-aldehyde)	100%	
(+)-JQ1		suppressed the growth of organoids in a cancer-specific manner
